The record followed here is ChEMBL document CHEMBL3217499, “Membrane disrupting antimicrobial peptide dendrimers with multiple amino termini” (Medchemcomm, 2012).

Series [1] relates to Bacillus subtilis. In words: Antibacterial activity against Bacillus subtilis BR151 after 18 to 24 hrs by broth microdilution assay. The format is functional. (In general: In broth dilution the organism is exposed to a series of concentrations in liquid medium.)
In series [2] the test system is Pseudomonas aeruginosa. In words: Antibacterial activity against Pseudomonas aeruginosa K799/WT by broth microdilution assay. Format: functional.
In series [3] the test system is Pseudomonas aeruginosa. In words: Antibacterial activity against Pseudomonas aeruginosa PAO1 HS by broth microdilution assay. The format is functional.
Series [4] has as its system Staphylococcus aureus. Put plainly: Antibacterial activity against methicillin-resistant Staphylococcus aureus 42080 by broth microdilution assay. Format: functional.
For series [5], the system named is Pseudomonas aeruginosa. In words: Antibacterial activity against Pseudomonas aeruginosa K799/61 by broth microdilution assay. The format is functional.
Series [6] concerns Enterococcus faecalis. Put plainly: Antibacterial activity against Enterococcus faecalis Van BE80-8 by broth microdilution assay. The format is functional.
Series [7] relates to Pseudomonas aeruginosa. In words: Antibacterial activity against Pseudomonas aeruginosa PAO1 after 18 to 24 hrs by broth microdilution assay. The format is functional.
In series [8] the test system is Pseudomonas aeruginosa. Put plainly: Antibacterial activity against Pseudomonas aeruginosa 8S/H by broth microdilution assay. The format is functional.
In series [9] the test system is Enterococcus faecalis. Put plainly: Antibacterial activity against Enterococcus faecalis ATCC 29212 by broth microdilution assay. Format: functional.
The test system of series [10] is Escherichia coli. In words: Antibacterial activity against Escherichia coli ATCC 25922 by broth microdilution assay. The format is functional.
For series [11], the system named is Pseudomonas aeruginosa. In words: Antibacterial activity against Pseudomonas aeruginosa ATCC 27853 by broth microdilution assay. Format: functional.
Series [12] is described as follows: Hemolytic activity in human RBC after 4 hrs. The format is ADME, cell-based. The conditions noted are these: erythrocyte.
Series [13] relates to Staphylococcus aureus. In words: Antibacterial activity against Staphylococcus aureus ATCC 29213 by broth microdilution assay. Format: functional.
The subject of series [14] is Escherichia coli. Put plainly: Antibacterial activity against Escherichia coli DH5[alpha] after 18 to 24 hrs by broth microdilution assay. The format is functional.

Each structure is given as a SMILES string. Converted amounts (≈) assume the structure as drawn. Where a SMILES comes first, the peptide text is derived from it. Bridges are numbered along the chain shown (N, C = ends). Roman numbers before positions name the chains, in order. Side-chain parts run from the residue outwards. The star is where a group is joined. X3 = CC(=O)N[C@@H](CC(C)C)C(=O)NCCCC[C@H](NC(=O)[C@H](CC(C)C)NC(C)=O)C(=O)*; LeuLys(Leu) = CC(C)C[C@H](N)C(=O)NCCCC[C@H](NC(=O)[C@@H](N)CC(C)C)C(=O)*; X4 = C[C@H](N)C(=O)NCCCC[C@H](NC(=O)[C@H](C)N)C(=O)*

Regarding `CC(C)C[C@H](N)C(=O)NCCCC[C@H](NC(=O)[C@@H](N)CC(C)C)C(=O)N[C@@H](Cc1ccccc1)C(=O)NCCCC[C@H](NC(=O)[C@H](Cc1ccccc1)NC(=O)[C@H](CCCCNC(=O)[C@@H](N)CC(C)C)NC(=O)[C@@H](N)CC(C)C)C(=O)N1CCC[C@H]1C(=O)NCCCC[C@H](NC(=O)[C@@H]1CCCN1C(=O)[C@H](CCCCNC(=O)[C@H](Cc1ccccc1)NC(=O)[C@H](CCCCNC(=O)[C@@H](N)CC(C)C)NC(=O)[C@@H](N)CC(C)C)NC(=O)[C@H](Cc1ccccc1)NC(=O)[C@H](CCCCNC(=O)[C@@H](N)CC(C)C)NC(=O)[C@@H](N)CC(C)C)C(=O)N[C@@H](CCCCN)C(N)=O`, the MIC (usually the smallest concentration in the dilution series that meets the test's criterion for growth inhibition) in series [1] is 2 mg/L (≈ 0.732 µM); in series [2] it was above 32 mg/L; in series [3], above 32 mg/L; in series [4] it was above 32 mg/L; in series [5] it was above 32 mg/L; in series [6] it was above 32 mg/L. Also, the MIC was 66 mg/L (≈ 24.2 µM) in [7]; above 32 mg/L in [8]; above 32 mg/L in series [9]; above 32 mg/L in series [10]; above 32 mg/L in [11]; above 32 mg/L in series [13]. Moreover, in series [14], the MIC came to 19 mg/L (≈ 6.96 µM). Besides, in [12], the MHC is above 10000 µg/mL.
As to `CC(C)C[C@H](NC(=O)[C@H](CCCCNC(=O)[C@H](C)N)NC(=O)[C@H](C)N)C(=O)NCCCC[C@H](NC(=O)[C@H](CC(C)C)NC(=O)[C@H](CCCCNC(=O)[C@H](C)N)NC(=O)[C@H](C)N)C(=O)N[C@@H](Cc1ccccc1)C(=O)NCCCC[C@H](NC(=O)[C@H](Cc1ccccc1)NC(=O)[C@H](CCCCNC(=O)[C@H](CC(C)C)NC(=O)[C@H](CCCCNC(=O)[C@H](C)N)NC(=O)[C@H](C)N)NC(=O)[C@H](CC(C)C)NC(=O)[C@H](CCCCNC(=O)[C@H](C)N)NC(=O)[C@H](C)N)C(=O)N[C@@H](CCCCN)C(N)=O` (I: H-AK(Ala)LK([Leu-X4])FKK-NH2 / II: H-AK(Ala)LK([Leu-X4])F; amide I:6-II:C), the minimal inhibitory concentration (MIC) in series [1] was above 100 mg/L; in series [7] it was 67 mg/L (≈ 28.4 µM); in series [14], above 100 mg/L. This molecule also had an MHC in series [12] of 1000 µg/mL.
Consider `CC(C)C[C@@H](N)C(=O)NCCCC[C@H](NC(=O)[C@H](N)CC(C)C)C(=O)N[C@H](Cc1ccccc1)C(=O)NCCCC[C@H](NC(=O)[C@@H](Cc1ccccc1)NC(=O)[C@H](CCCCNC(=O)[C@H](N)CC(C)C)NC(=O)[C@H](N)CC(C)C)C(=O)N1CCC[C@@H]1C(=O)NCCCC[C@H](NC(=O)[C@H]1CCCN1C(=O)[C@H](CCCCNC(=O)[C@@H](Cc1ccccc1)NC(=O)[C@H](CCCCNC(=O)[C@H](N)CC(C)C)NC(=O)[C@H](N)CC(C)C)NC(=O)[C@@H](Cc1ccccc1)NC(=O)[C@H](CCCCNC(=O)[C@H](N)CC(C)C)NC(=O)[C@H](N)CC(C)C)C(=O)N[C@H](CCCCN)C(N)=O`, for which the MIC in series [1] worked out at 4.4 mg/L (≈ 1.61 µM); in [7] it was 60 mg/L (≈ 22 µM); in [14], 11 mg/L (≈ 4.03 µM). In series [12], this molecule returned an MHC above 10000 µg/mL.
Regarding `CC(C)C[C@H](NC(=O)[C@H](CCCCNC(=O)[C@@H](N)CC(C)C)NC(=O)[C@@H](N)CC(C)C)C(=O)NCCCC[C@H](NC(=O)[C@H](CC(C)C)NC(=O)[C@H](CCCCNC(=O)[C@@H](N)CC(C)C)NC(=O)[C@@H](N)CC(C)C)C(=O)N[C@@H](C)C(=O)NCCCC[C@H](NC(=O)[C@H](C)NC(=O)[C@H](CCCCNC(=O)[C@H](CC(C)C)NC(=O)[C@H](CCCCNC(=O)[C@@H](N)CC(C)C)NC(=O)[C@@H](N)CC(C)C)NC(=O)[C@H](CC(C)C)NC(=O)[C@H](CCCCNC(=O)[C@@H](N)CC(C)C)NC(=O)[C@@H](N)CC(C)C)C(=O)N[C@@H](CCCCN)C(N)=O` (I: H-LK(Leu)LK([Leu-LeuLys(Leu)])AKK-NH2 / II: H-LK(Leu)LK([Leu-LeuLys(Leu)])A; amide I:6-II:C), the results for the MIC in series [1], in series [7] and in series [14] were 4.5 mg/L (≈ 1.77 µM), 67 mg/L (≈ 26.4 µM) and above 100 mg/L, respectively. In series [12], the MHC was above 2000 µg/mL.
Regarding `CC(C)C[C@H](N)C(=O)NCCCC[C@H](NC(=O)[C@@H](N)CC(C)C)C(=O)N[C@@H](C)C(=O)NCCCC[C@H](NC(=O)[C@H](C)NC(=O)[C@H](CCCCNC(=O)[C@@H](N)CC(C)C)NC(=O)[C@@H](N)CC(C)C)C(=O)N[C@@H](Cc1ccccc1)C(=O)NCCCC[C@H](NC(=O)[C@H](Cc1ccccc1)NC(=O)[C@H](CCCCNC(=O)[C@H](C)NC(=O)[C@H](CCCCNC(=O)[C@@H](N)CC(C)C)NC(=O)[C@@H](N)CC(C)C)NC(=O)[C@H](C)NC(=O)[C@H](CCCCNC(=O)[C@@H](N)CC(C)C)NC(=O)[C@@H](N)CC(C)C)C(=O)N[C@@H](CCCCN)C(N)=O` (I: H-LK(Leu)AK([Ala-LeuLys(Leu)])FKK-NH2 / II: H-LK(Leu)AK([Ala-LeuLys(Leu)])F; amide I:6-II:C), the MIC is 67 mg/L (≈ 26.5 µM) in [1], above 100 mg/L in [7] and above 100 mg/L in series [14]. For the same molecule, the MHC in series [12] is above 2000 µg/mL.
Take `CC(C)C[C@@H](N)C(=O)NCCCC[C@H](NC(=O)[C@H](N)CC(C)C)C(=O)N[C@H](CC(C)C)C(=O)NCCCC[C@H](NC(=O)[C@@H](CC(C)C)NC(=O)[C@H](CCCCNC(=O)[C@H](N)CC(C)C)NC(=O)[C@H](N)CC(C)C)C(=O)N[C@H](Cc1ccccc1)C(=O)NCCCC[C@H](NC(=O)[C@@H](Cc1ccccc1)NC(=O)[C@H](CCCCNC(=O)[C@@H](CC(C)C)NC(=O)[C@H](CCCCNC(=O)[C@H](N)CC(C)C)NC(=O)[C@H](N)CC(C)C)NC(=O)[C@@H](CC(C)C)NC(=O)[C@H](CCCCNC(=O)[C@H](N)CC(C)C)NC(=O)[C@H](N)CC(C)C)C(=O)N[C@H](CCCCN)C(N)=O`: the MIC in series [1] was 2.5 mg/L (≈ 0.928 µM); in [7], 60 mg/L (≈ 22.3 µM); in series [14], 15 mg/L (≈ 5.57 µM). Also, the MHC in series [12] was above 10000 µg/mL.
For `CC(=O)N[C@@H](CC(C)C)C(=O)NCCCC[C@H](NC(=O)[C@H](CC(C)C)NC(C)=O)C(=O)N[C@@H](Cc1ccccc1)C(=O)NCCCC[C@H](NC(=O)[C@H](Cc1ccccc1)NC(=O)[C@H](CCCCNC(=O)[C@H](CC(C)C)NC(C)=O)NC(=O)[C@H](CC(C)C)NC(C)=O)C(=O)N1CCC[C@H]1C(=O)NCCCC[C@H](NC(=O)[C@@H]1CCCN1C(=O)[C@H](CCCCNC(=O)[C@H](Cc1ccccc1)NC(=O)[C@H](CCCCNC(=O)[C@H](CC(C)C)NC(C)=O)NC(=O)[C@H](CC(C)C)NC(C)=O)NC(=O)[C@H](Cc1ccccc1)NC(=O)[C@H](CCCCNC(=O)[C@H](CC(C)C)NC(C)=O)NC(=O)[C@H](CC(C)C)NC(C)=O)C(=O)N[C@@H](CCCCN)C(N)=O` (I: Ac-LK([Leu-Ac])FK([Phe-X3])PKK-NH2 / II: Ac-LK([Leu-Ac])FK([Phe-X3])P; amide I:6-II:C), the MIC in series [2], in series [3], in [4], in [5], in series [6] and in [8] was above 32 mg/L in each case. The MIC in series [9], in [10], in series [11] and in series [13] was above 32 mg/L throughout.
`CC(=O)N[C@@H](CC(C)C)C(=O)NCCCC[C@H](NC(=O)[C@H](CC(C)C)NC(C)=O)C(=O)N[C@@H](CC(C)C)C(=O)NCCCC[C@H](NC(=O)[C@H](CC(C)C)NC(=O)[C@H](CCCCNC(=O)[C@H](CC(C)C)NC(C)=O)NC(=O)[C@H](CC(C)C)NC(C)=O)C(=O)N[C@@H](Cc1ccccc1)C(=O)NCCCC[C@H](NC(=O)[C@H](Cc1ccccc1)NC(=O)[C@H](CCCCNC(=O)[C@H](CC(C)C)NC(=O)[C@H](CCCCNC(=O)[C@H](CC(C)C)NC(C)=O)NC(=O)[C@H](CC(C)C)NC(C)=O)NC(=O)[C@H](CC(C)C)NC(=O)[C@H](CCCCNC(=O)[C@H](CC(C)C)NC(C)=O)NC(=O)[C@H](CC(C)C)NC(C)=O)C(=O)N[C@@H](CCCCN)C(N)=O` (I: Ac-LK([Leu-Ac])LK([Leu-X3])FKK-NH2 / II: Ac-LK([Leu-Ac])LK([Leu-X3])F; amide I:6-II:C): the MIC in series [2], in series [3], in [4], in series [5], in series [6] and in [8] was above 32 mg/L in each case. The MIC in series [9], in series [10], in series [11] and in series [13] was above 32 mg/L throughout.
Consider `CC(C)C[C@H](NC(=O)[C@H](CCCCNC(=O)[C@@H](N)CC(C)C)NC(=O)[C@@H](N)CC(C)C)C(=O)NCCCC[C@H](NC(=O)[C@H](CC(C)C)NC(=O)[C@H](CCCCNC(=O)[C@@H](N)CC(C)C)NC(=O)[C@@H](N)CC(C)C)C(=O)N[C@@H](Cc1ccccc1)C(=O)NCCCC[C@H](NC(=O)[C@H](Cc1ccccc1)NC(=O)[C@H](CCCCNC(=O)[C@H](CC(C)C)NC(=O)[C@H](CCCCNC(=O)[C@@H](N)CC(C)C)NC(=O)[C@@H](N)CC(C)C)NC(=O)[C@H](CC(C)C)NC(=O)[C@H](CCCCNC(=O)[C@@H](N)CC(C)C)NC(=O)[C@@H](N)CC(C)C)C(=O)N[C@@H](C)C(N)=O` (I: H-LK(Leu)LK([Leu-LeuLys(Leu)])FKA-NH2 / II: H-LK(Leu)LK([Leu-LeuLys(Leu)])F; amide I:6-II:C), for which the MIC in series [1] is 2 mg/L (≈ 0.758 µM); in series [7], at least 100 mg/L; in series [14] it was 15 mg/L (≈ 5.69 µM). In addition, in [12], the MHC turned out to be 31 µg/mL.
